Measured values reported in ChEMBL document CHEMBL1201862, “PubChem BioAssay data set” (2004).
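Method: 48-hour compound exposure of cells in 96-well plates, five concentrations, linear interpolation of endpoints. GI50 marks 50% less growth.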 Activity calls are given as the source filed them. Rule as the data show it: active = GI50 up to about 1.1 µM and inactive = higher. Square brackets hold non-standard residues; d marks the D form. Peptide text beside a SMILES is read from it. ξ: configuration not given here. ξ2Thi = NC(Cc1cccs1)C(=O)O; ξR = N=C(N)NCCCC(N)C(=O)O; ξI = CCC(C)C(N)C(=O)O; ξL = CC(C)CC(N)C(=O)O; ξK = NCCCCC(N)C(=O)O; ξT = CC(O)C(N)C(=O)O; ξA = CC(N)C(=O)O

Tests used:
Assay in all cases: DTP human tumour cell line panel, 48 h
SF-268 = system: SF-268
EKVX = system: EKVX
SR = system: SR
SNB-75 = system: SNB-75
SF-295 = system: SF-295
A498 = system: A498
NCI/ADR-RES = system: NCI/ADR-RES
IGROV-1 = system: IGROV-1
PC-3 = system: PC-3
HT-29 = system: HT-29
HOP-62 = system: HOP-62
M14 = system: M14
T47D = system: T47D
OVCAR-5 = system: OVCAR-5
HCC 2998 = system: HCC 2998
LOX IMVI = system: LOX IMVI
BT-549 = system: BT-549
U-251 = system: U-251
NCI-H522 = system: NCI-H522

Measured: GI50

Cc1cc(C)nc(NS(=O)(=O)c2ccc(Nc3c4ccccc4nc4c(C(=O)NCCCN(CCO)CCO)cccc34)cc2)n1
inactive: SF-268 16.9 µM | EKVX 36.6 µM | SR 9.75 µM | SNB-75 3.35 µM | SF-295 27.4 µM | A498 54.3 µM | NCI/ADR-RES > 100 µM | IGROV-1 15.5 µM | PC-3 14.9 µM | HT-29 12.9 µM | HOP-62 17.1 µM | M14 31.8 µM | T47D 22.5 µM | OVCAR-5 26.4 µM | HCC 2998 16.7 µM | LOX IMVI 10.3 µM | BT-549 11.6 µM | U-251 13.9 µM | NCI-H522 10.9 µM

C(/Cc1ccc2c(c1)OCO2)=N\N=C1NCCCN1
inactive: SF-268 93.8 µM | EKVX 48.9 µM | SR 22.5 µM | SNB-75 15.2 µM | SF-295 38.2 µM | A498 19.5 µM | NCI/ADR-RES 84.1 µM | IGROV-1 68.2 µM | PC-3 36.3 µM | HT-29 65.5 µM | HOP-62 28.4 µM | M14 32.4 µM | T47D 19.5 µM | OVCAR-5 59 µM | HCC 2998 41.7 µM | LOX IMVI 29.4 µM | BT-549 64.7 µM | U-251 75.7 µM | NCI-H522 55.3 µM

CCOC(=O)c1nc2cc(C(F)(F)F)ccc2nc1Nc1ccc(C(=O)OC)s1
inactive: SF-268 44.9 µM | EKVX 45.9 µM | SR 15.5 µM | SNB-75 56.1 µM | SF-295 43 µM | A498 40.9 µM | NCI/ADR-RES 45.5 µM | IGROV-1 40.9 µM | PC-3 30.7 µM | HT-29 37.1 µM | HOP-62 33.6 µM | M14 37.6 µM | T47D 25.7 µM | OVCAR-5 > 100 µM | HCC 2998 36.1 µM | LOX IMVI 30.5 µM | BT-549 25.7 µM | U-251 29.6 µM | NCI-H522 19.7 µM

COc1cc2c(c(OC)c1)C(=O)O[C@H](C)CCCC/C=C/C2
inactive: SF-268 8.17 µM | EKVX 11.7 µM | SR > 53.5 µM | SNB-75 14.1 µM | SF-295 13.6 µM | A498 39.7 µM | NCI/ADR-RES 29.2 µM | IGROV-1 9.06 µM | PC-3 7.78 µM | HT-29 35 µM | HOP-62 8.15 µM | M14 12.7 µM | T47D 9.16 µM | OVCAR-5 15.1 µM | HCC 2998 15.8 µM | LOX IMVI 4.73 µM | BT-549 13.4 µM | U-251 9.79 µM | NCI-H522 8.09 µM

CCCCc1ccc(Nc2nc3c(ncn3C3CC(O)C(CN=[N+]=[N-])O3)c(=O)[nH]2)cc1 (stereo unspecified)
inactive: SF-268 > 100 µM | EKVX > 100 µM | SR > 100 µM | SNB-75 > 100 µM | SF-295 > 100 µM | A498 > 100 µM | NCI/ADR-RES > 100 µM | IGROV-1 > 100 µM | PC-3 > 100 µM | HT-29 > 100 µM | HOP-62 > 100 µM | M14 > 100 µM | T47D 54.7 µM | OVCAR-5 > 100 µM | HCC 2998 > 100 µM | LOX IMVI > 100 µM | BT-549 > 100 µM | U-251 > 100 µM | NCI-H522 > 100 µM

ClC(Cl)(Cl)C1CCOC1n1nc2ccccc2n1 (stereo unspecified)
inactive: SF-268 > 100 µM | EKVX > 100 µM | SR > 100 µM | SNB-75 28.2 µM | SF-295 > 100 µM | A498 > 100 µM | NCI/ADR-RES > 100 µM | IGROV-1 > 100 µM | PC-3 > 100 µM | HT-29 > 100 µM | HOP-62 > 100 µM | M14 > 100 µM | T47D > 100 µM | OVCAR-5 > 100 µM | HCC 2998 > 100 µM | BT-549 > 100 µM | U-251 > 100 µM | NCI-H522 > 100 µM

O=c1[nH]c2ccc(CC(=S)N3CCN(c4ccccc4)CC3)cc2o1
inactive: SF-268 > 76.4 µM | EKVX 37.9 µM | SR > 58.3 µM | SNB-75 > 34 µM | SF-295 > 89.3 µM | A498 > 30 µM | NCI/ADR-RES > 44.5 µM | IGROV-1 > 90.8 µM | PC-3 > 100 µM | HT-29 > 100 µM | HOP-62 > 88.5 µM | M14 > 100 µM | T47D > 100 µM | OVCAR-5 > 100 µM | HCC 2998 > 100 µM | LOX IMVI > 100 µM | BT-549 > 100 µM | U-251 41.2 µM | NCI-H522 86.7 µM

COc1ccc2c(c1)-c1c(c3cc(OC)ccc3n1CCN1CCOCC1)CC2
inactive: SF-268 55 µM | SR 3.94 µM | SNB-75 19.8 µM | SF-295 18.9 µM | A498 46.7 µM | NCI/ADR-RES 20.7 µM | IGROV-1 18.1 µM | PC-3 24.2 µM | HT-29 13.5 µM | HOP-62 42.6 µM | M14 15.8 µM | T47D 44.4 µM | OVCAR-5 25.4 µM | HCC 2998 1.76 µM | BT-549 28.4 µM | U-251 29.4 µM | NCI-H522 23.3 µM

COC(=O)[C@H](CCSC)NC(=O)c1ccc(CNC(=O)/C(C)=C/c2ccccc2)cc1
inactive: SF-268 25.8 µM | EKVX 83.2 µM | SR 92.7 µM | SNB-75 3.81 µM | SF-295 48.5 µM | A498 > 100 µM | NCI/ADR-RES 25.9 µM | IGROV-1 50.1 µM | PC-3 47 µM | HT-29 21 µM | HOP-62 21.8 µM | M14 30.8 µM | T47D 21.8 µM | OVCAR-5 97.1 µM | HCC 2998 9.48 µM | LOX IMVI 33.1 µM | BT-549 24.7 µM | U-251 31 µM | NCI-H522 10.8 µM

CCC(C)C(NC(=O)C(Cc1cccs1)NC(=O)C(CC(C)C)NC(=O)C(CC(C)C)NC(=O)C(CCCCN)NC(=O)C(CCCN=C(N)N)NC(=O)[C@H](Cc1ccc(O)cc1)NC(=O)C(NC(=O)C(C)NC(=O)C(N)CC(C)C)C(C)O)C(=O)NC(CC(C)C)C(N)=O (stereo partly specified) (H-[ξL][ξA][ξT]Y[ξR][ξK][ξL][ξL][ξ2Thi][ξI][ξL]-NH2)
inactive: SF-268 > 50 µM | EKVX > 50 µM | SR > 50 µM | SNB-75 > 50 µM | SF-295 > 50 µM | A498 > 50 µM | NCI/ADR-RES > 50 µM | PC-3 > 50 µM | HT-29 > 50 µM | HOP-62 > 50 µM | M14 > 50 µM | T47D > 50 µM | OVCAR-5 > 50 µM | HCC 2998 > 50 µM | LOX IMVI > 50 µM | BT-549 > 50 µM | U-251 > 50 µM | NCI-H522 > 50 µM
